# Values of other authors in US20250131989A1, “LABORATORY CALIBRATION SYSTEM OF MATERIALS FOR USAGE IN SIMULATIONS AND FORECAST OF DISSOLUTION, DISINTEGRATION, DIFFUSION, COMPRESSION, DEFORMATION AND OTHER RELATED MATERIAL PROPERTIES AND CORRESPONDING METHOD THEREOF” (CINCAP GMBH, priority 2021, published 2025).
# Tests used:
# [1] = key 7 (solubility vs. pH data point); example JSON database record, producer CINCAP
# [2] = example JSON database record, producer CINCAP
smiles,measurement,setting,value
Cn1c(=O)c2[nH]cnc2n(C)c1=O [Theophilline],solubility,[1],"“solubility”:[{“key”:7, “value”:7.36}],"
same,diffusivity,[2],"“diffusivity”:6.16e−10,"
